Assay [1] addresses T1, SNORF36a (Homo sapiens, UniProt Q9UHM6).
T1 sequence (Q9UHM6 1-478): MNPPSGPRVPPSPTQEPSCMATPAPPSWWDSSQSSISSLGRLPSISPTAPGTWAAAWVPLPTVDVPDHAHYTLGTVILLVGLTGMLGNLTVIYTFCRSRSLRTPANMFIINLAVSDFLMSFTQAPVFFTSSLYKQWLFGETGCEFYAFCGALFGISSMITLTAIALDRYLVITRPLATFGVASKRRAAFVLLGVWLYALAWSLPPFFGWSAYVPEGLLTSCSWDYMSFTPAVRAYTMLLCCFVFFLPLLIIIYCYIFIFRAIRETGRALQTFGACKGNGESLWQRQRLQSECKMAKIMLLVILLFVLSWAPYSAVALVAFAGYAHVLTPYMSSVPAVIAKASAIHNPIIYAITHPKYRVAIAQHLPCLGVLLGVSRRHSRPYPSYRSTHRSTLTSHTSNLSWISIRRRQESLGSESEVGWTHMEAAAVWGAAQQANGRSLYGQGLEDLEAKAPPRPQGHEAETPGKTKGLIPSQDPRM
Put plainly: Intracellular Ca2+ mobilization (FLIPR) in human SNORF36a-transfected Cos-7 cells. It is filed as cell-based. Particulars: for EC50: photobleached SNORF36a-transfected Cos-7 cells, FLIPR, n=3. How it is done:
The intracellular free calcium (Ca^2+) concentration may be measured by the Fluorescence Imager Plate Reader (FLIPR™).
Cells transfected with appropriate DNA as described earlier were plated into clear, flat-bottom, black-wall 96-well plates (Costar) at a density of 80,000-150,000 cells per well and allowed to incubate for 24 hr at 5% CO2, 37° C. Whenever necessary, the cells were placed in a waterbath maintained at 37° C. and were exposed to a lamp light (50W) placed at a distance of approximately 30 cm, 90 to 120 min before the imaging. The growth medium was aspirated and 100 μl of loading medium containing fluo-3 dye was added to each well 60 min before the imaging. The loading medium contained: Hank's BSS (without phenol red) (Gibco), 20 mM HEPES (Sigma), 0.1 or 1% BSA (Sigma), dye/pluronic acid mixture (e.g. 1 mM Flou-3, AM (Molecular Probes) and 10% pluronic acid (Molecular Probes) mixed immediately before use), and 2.5 mM probenecid (Sigma) (prepared fresh). The cells were allowed to incubate for about 1 hour at 5% CO2, 37° C.
Before or during the incubation of cells with the dye-loading medium, the test compound plate was prepared. Since retinoids are chemically unstable and can undergo rapid photoisomerization (Hu et al., 1994), care was taken to weigh, dissolve and prepare appropriate concentrations of the test compound under photographic darkroom lights. The test compounds were diluted in wash buffer (Hank's BSS (without phenol red), 20 mM HEPES, 2.5 mM probenecid) to a 4× final concentration and aliquoted into a clear v-bottom plate (Nunc). The test compounds were protected from light till their addition to cells. Following the incubation with the dye-loading medium, the cells were washed to remove the excess dye. A Denley plate washer was used to gently wash the cells 4 times and leave a 100 μl final volume of wash buffer in each well. The cell plate was placed in the center tray and the test compound plate was placed in the right tray of the FLIPR. The FLIPR software was setup for the experiment, the experiment was run and the data were collected. For the agonist experiment, the sampling rate in the FLIPR was every 1 sec for the first minute and every 2 sec for the next two minutes. In this paradigm, the test compound was added after recording base line for the first 10 sec. For the antagonist experiment, the sampling rate in the FLIPR was every 1 sec for the first minute, every 6 sec for the next 5 minutes, every 1 sec for the next one minute followed by every 2 sec next two minutes. To evaluate the antagonist activity, the test compound was added to the cells 10 sec after commencing the recording and the agonist was added at 310 sec of the recording. Baseline subtraction and negative control corrections were performed on the traces. The collected data were then analyzed using the Excel spreadsheet program.
For orientation: Calcium flux is commonly read through the fluorescence of an indicator in the cells.

Assay [2] concerns Control oocytes, not injected with SNORF36a mRNA. The assay can be described thus: Light-elicited currents in control Xenopus oocytes not injected with SNORF36a mRNA. Particulars: control uninjected oocytes pre-incubated with ligand (100 nM, 24 h), n=10 oocytes. It is filed as cell-based, Xenopus laevis. The procedure: (§1) In the present invention, oocytes were harvested from Xenopus laevis and injected with mRNA transcripts as previously described (Quick and Lester, 1994; Smith et al., 1997). SNORF36a RNA transcripts were synthesized using the T7 polymerase (“Message Machine”, Ambion) from the plasmid BO109 linearized with NotI. Oocytes were injected with 5-25 ng synthetic RNA and incubated for 3-8 days at 17° C. Dual electrode voltage clamp (Axon Instruments Inc.) was performed using 3 M KCl-filled glass microelectrodes having resistances of 1-2 MOhm. Unless otherwise specified, oocytes were voltage clamped at a holding potential of −80 mV. During recordings, oocytes were bathed in continuously flowing (1-3 ml/min) medium containing 96 mM NaCl, 2 mM KCl, 1.8 mM CaCl2, 1 mM MgCl2, 5 mM HEPES, pH 7.5 (ND96), and the appropriate ligand.
Experiments were carried out under minimal light conditions which required compound weighing, final dilutions and oocyte recordings to be performed under photographic darkroom lights (“Brightlab Junior” safelight). In some cases, the ligands were briefly exposed to room light (5-10 min.) during the weighing procedure. For eliciting physiological responses from oocytes, the light stimulus was a 60 W tungsten lamp set at a distance of 30 cm from the oocyte. […] All values are expressed as mean ± standard error of the mean.

The target in assay [3] is T1, SNORF36a. The assay can be described thus: Light-elicited currents in voltage-clamped Xenopus oocytes expressing SNORF36a. Particulars: pre-incubated in the dark 24-48 h at 100 nM in ND96. Further details: expressed in transfected cells; host or cells: Xenopus laevis oocytes injected with synthetic mRNA transcribed from plasmid BO109. It is filed as cell-based. The procedure:
as §1
Experiments were carried out under minimal light conditions which required compound weighing, final dilutions and oocyte recordings to be performed under photographic darkroom lights (“Brightlab Junior” safelight). In some cases, the ligands were briefly exposed to room light (5-10 min.) during the weighing procedure. For eliciting physiological responses from oocytes, the light stimulus was a 60 W tungsten lamp set at a distance of 30 cm from the oocyte. Drugs were applied either by superfusion, switching from a series of gravity fed perfusion lines, or by local perfusion from a 10 μl glass capillary tube fixed at a distance of 0.5 mm from the oocyte. Experiments were carried out at room temperature. All values are expressed as mean ± standard error of the mean.

For assay [4], the target named is T1, SNORF36a. Put plainly: Inositol phosphate assay (phosphoinositide hydrolysis) in human SNORF36a-transfected Cos-7 cells. It counts as cell-based. How it is done:
(§2) Human SNORF36a receptor-mediated activation of the inositol phosphate (IP) second messenger pathways was assessed by radiometric measurement of IP products.
(§3) Cells were plated at a density of 70,000 cells per well and allowed to incubate for 24 hours. The cells were then labeled with 0.5 μCi [^3H]myo-inositol overnight at 37° C., 5% CO2. Immediately before the assay, the medium was removed and replaced with 180 μL of Phosphate-Buffered Saline (PBS) containing 10 mM LiCl. The plates were then incubated for 20 min at 37° C., 5% CO2. Following the incubation, the cells were challenged with agonist (20 μl/well; 10× concentration) for 30 min at 37° C. and were simultaneously either exposed or not to a lamp light (50W) placed at approximately 30 cm distance from the cells. The challenge was terminated by the addition of 100 μL of 5% v/v trichloroacetic acid, followed by incubation at 4° C. for greater than 30 minutes. Total IPs were isolated from the lysate by ion exchange chromatography. Briefly, the lysed contents of the wells were transferred to a Multiscreen HV filter plate (Millipore) containing Dowex AGI-X8 (200-400 mesh, formate form). The filter plates were prepared adding 100 μL of Dowex AG1-X8 suspension (50% v/v, water: resin) to each well. […] 200 μL of scintillation cocktail was added to each well, and the radioactivity was determined by liquid scintillation counting.

Assay [5] deals with vector-transfected Cos-7 cells. Put plainly: Inositol phosphate assay in empty vector-transfected Cos-7 cells. It counts as cell-based. Particulars: vector-transfected Cos-7 cells exposed to lamp light. The procedure: as §2, §3
Where [6] appears, read: antagonist at 10 μM, hSNORF36a-transfected Cos-7 cells, n=2.

Entries after “also recorded” stand apart in the source; their conditions may differ.

By EC50 is commonly meant the midpoint of the concentration-response curve.

In assay [1], `CC1=C(/C=C/C(C)=C\C=C\C(C)=C\C=O)C(C)(C)CCC1` [9-cis-retinal] registered an EC50 of 0.152 µM. This lies in the sub-micromolar range.
In the case of `CC1=C(/C=C/C(C)=C/C=C/C(C)=C/C=O)C(C)(C)CCC1` [13-cis-retinal], in assay [1], the EC50 was 0.477 µM. Also, in assay [2], the response to light result was “did not respond to light”. Further, the “response to light stimulus after pre-incubation” value (“response to light stimulus” below) in assay [3] is recorded as “rapidly desensitizing Cl^− currents”.
Take `CC1=C(/C=C/C(C)=C/C=C/C(C)=C/C(=O)O)C(C)(C)CCC1` [ATRA, all-trans-retinoic acid]: the “response to light stimulus” value in assay [3] is recorded as “rapidly desensitizing Cl^− currents”.
Turning to `CC1=C(/C=C/C(C)=C/C=C/C(C)=C/C=O)C(C)(C)CCC1` [all-trans-retinal], in assay [1], a half-maximal response (EC50) required 0.263 µM. For the same molecule, the 3H-IP accumulation result in assay [4] (SNORF36a-transfected Cos-7 cells exposed to lamp light, n=2) was “Concentration-dependent increase”; in assay [5], “not in vector-transfected cells”. Moreover, the 3H-IP levels entry in assay [4] (SNORF36a-transfected Cos-7 cells not exposed to light, n=1) is recorded as “did not change”. Besides, in assay [2], the response to light entry is on record as “fails to respond to light; also recorded: did not respond to light”. The “response to light stimulus” value in assay [3] is listed as “rapidly desensitizing Cl^− currents”.
On to `CC(=O)/C=C/C1=C(C)CCCC1(C)C` [β-ionone], for which the “nature of the antagonism” value in assay [1] (10 μM against all-trans-retinal and 9-cis-retinal, hSNORF36a-transfected Cos-7 cells) was “insurmountable”. Besides, in assay [1] (setting [6]), the “antagonism of 9-cis-retinal-induced Ca2+ mobilization” value was “significantly antagonized” and the “antagonism of all-trans-retinal-induced Ca2+ mobilization” value is reported as “significantly antagonized”.

(Values after patent publication US7037665B1, “Compositions comprising SNORF36 receptor compounds” (H. Lundbeck A/S, priority 1999, dated 2006).)
